The record followed here is US12583856B2, “Inhibitors of protein kinase A” (Blueprint Medicines Corporation, priority 2021, dated 2026).

A value given as a limit tells only on which side of the number the result lay.

Assay [1] relates to PKA (phosphorylation of VASP on Serine 157). The assay can be described thus: Cellular potency assay: P-VASP(157) HTRF in Forskolin-stimulated Huh7 cells. In kind it is cell-based. Particulars: Homo sapiens, Huh-7, 4 hours compound, 5 μM Forskolin 30 minutes, read-out: Phos VASP(S157) IC50. From the text:
PKA directly phosphorylate VASP on Serine 157. Phosphorylation of VASP on Serine 157. P-VASP(157) was therefore used as a readout of PKA cellular activity. P-VASP(157) was detected with a HTRF assay, which is based on a TR-FRET sandwich immunoassay-based format comprising two specific anti-VASP antibodies following the manufactors protocol (Cisbio, Catalog No. 63ADK066PEH). PKA was activated in the assay by the addition of Forskolin (Sigma-Aldrich, Catalog No. F3917).
Dose response in Forskolin-stimulated human Huh7 cells was measured as follows. Briefly, Huh7 cells were plated at a density of 2×10^4 cells per well in a 384-well opti-well cell culture plate in 15 μl of serum- and phenol-free Dulbecco's Modified Eagle Medium (DMEM, Gibco Catalog No. 21063-029), and incubated for over night at 37° C., 5% CO2. The next day, 3 μl of a dosed concentration series of test compound (0.24%) DMSO final concentration) was added to the wells, and the cells were incubated for an additional 4 hours at 37° C., 5% CO2. 2 μl of Forskolin was added at a final concentration of 5 μM and the plates were incubated for 30 minutes at 37° C., 5% CO2. 5 μl of lysis buffer containing 1% HALT protease cocktail inhibitors (ThermoFisher, Catalog No. 78430), was added to the cells and the mixture was incubated under gentle shaking for 30 min at room temperature. 10 μl of this lysate was transferred to a 384-well proxi plate and 2.5 μL of the premixed antibody solution was added. An antibody solution was prepared by combining phopho-VASP cryptate antibody and phospho-VASP d2 antibody, at twenty-fold dilution into a buffer solution following the manufactors' protocol. The lysate and antibody mixture was incubated for either 3 h at room temperature or overnight at 4° C. The fluorescence emission at two different wavelengths (665 nm and 620 nm) was read on an EnVision instrument.
A general note: Time-resolved FRET reads energy transfer from a long-lived donor to a nearby acceptor.

Assay [2] concerns the target T1, PRKACA (Homo sapiens, UniProt P17612).
T1 construct: purchased Millipore 539482
The assay can be described thus: PRKACA assay at Km (EZ Reader 2 electrophoretic mobility shift). It counts as biochemical. Particulars: 5 μM ATP (Km), 1 μM Kemptide, 90 minutes at 25 C; read-out: Enz PRKACA IC50. Here is the method:
A Perkin Elmer electrophoretic mobility shift platform (the EZ Reader 2) was used to assess the activity of test compounds against a kinase of interest. Fluorescently labeled substrate peptide was incubated in the presence of kinase, ATP, and the test compound, so that a portion of the peptide was phosphorylated by the enzyme. At the end of the reaction, the mix of phosphorylated (product) and non-phosphorylated (substrate) peptide containing solutions was passed through the microfluidic system of the Perkin Elmer EZ Reader 2 under an applied potential difference. The presence of the phosphate group on the product peptide provided a difference in mass and charge between those of the substrate peptide, resulting in a separation of the substrate and product pools in the sample. As the stopped solutions passed under the instrument's LED light the phosphorylated and un-phosphorylated fluorophore bound peptides were detected and resolved as separate peaks. The ratio between these peaks therefore reflected the test compound's impact on the kinase at that concentration in that well under those conditions.
PRKACA assay at Km: In each well of a 384-well plate, 0.007 ng/ul (0.18 nM) of PRKACA enzyme (Millipore: 539482) was incubated in a total of 12.5 μl of buffer (100 mM HEPES pH 7.5, 0.015% Brij 35, 10 mM MgCl2, 1 mM DTT) with 1 μM Kemptide peptide substrate (5-FAM-LRRASLG) (Anaspec 29933) and 5 μM ATP at 25 C for 90 minutes in the presence or absence of a dosed concentration series of test compounds (1% DMSO final concentration). The reaction was stopped by the addition of 80 μl of Stop buffer (100 mM HEPES pH 7.5, 0.015% Brij 35, 35 mM EDTA and 0.2% of Coating Reagent 3 (Perkin Elmer)). The plate was then read on the EZ Reader 2 (protocol settings: −2.0 psi, upstream voltage −700, downstream voltage −2700, post sample sip 60 seconds). Data was normalized to 0% and 100% inhibition controls and the IC50 calculated using a 4-parameter fit using GraphPad Prism.
For orientation: In EMSA bound probe runs differently from free probe, usually more slowly.

One may read the IC50 as the concentration that gives 50% inhibition. With `O=C(N[C@H]1C[C@H](O)c2cccc(F)c21)c1ccc(-c2ccnc3[nH]ccc23)nc1` (single isomer, unassigned) [Compound 118], the IC50 in assay [1] was 0.01 to 100 nM; in assay [2], at most 1 nM.
Take `C[C@@H]1c2cccc(F)c2[C@@H](NC(=O)c2ccc(-c3ccnc4[nH]ccc34)nc2)[C@H]1O` (single isomer, unassigned) [Compound 122]: the IC50 is below 50 nM in assay [1] and at most 1 nM in assay [2].
On the same counts, the results for `O=C(N[C@H]1c2c(ccc(F)c2F)OC[C@H]1O)c1ccc(-c2ccnc3[nH]ccc23)nc1` (stereo in doubt) [Compound 140, N-[(3S,4S)-5,6-Difluoro-3-hydroxy-3,4-dihydro-2H-1-benzopyran-4-yl]-6-{1H-pyrrolo[2,3-b]pyridin-4-yl}pyridine-3-carboxamide] are 0.01 to 100 nM and at most 1 nM.
On the same counts, the results for `O=C(N[C@H]1CCc2ccc(F)cc21)c1ccc(-c2ccnc3[nH]ccc23)nc1` [Compound 105, N-[(1S)-6-Fluoro-2,3-dihydro-1H-inden-1-yl]-6-{1H-pyrrolo[2,3-b]pyridin-4-yl}pyridine-3-carboxamide] are 0.01 to 100 nM and 1.01 to 5 nM.
For `O=C(N[C@H]1CCc2cccc(F)c21)c1ccc(-c2ccnc3[nH]ccc23)nc1` [Compound 106], the IC50 in assay [1] was 0.01 to 100 nM; in assay [2], at most 1 nM.
In the case of `O=C(N[C@@H]1c2ccccc2OC[C@H]1F)c1ccc(-c2ccnc3[nH]ccc23)cc1` [Compound 116, N-[(3S,4R)-3-Fluoro-3,4-dihydro-2H-1-benzopyran-4-yl]-4-{1H-pyrrolo[2,3-b]pyridin-4-yl}benzamide], the IC50 in assay [1] was 0.01 to 100 nM; in assay [2], at most 1 nM.
Take `O=C(N[C@@H]1c2c(F)cccc2OC[C@@H]1O)c1ccc(-c2ccnc3[nH]ccc23)cc1` [Compound 124]: the IC50 was below 50 nM in assay [1] and at most 1 nM in assay [2].
On the same counts, the results for `O=C(N[C@@H]1c2c(ccc(F)c2F)C[C@@H]1O)c1ccc(-c2ccnc3[nH]ccc23)nc1` [Compound 132, N-[(1R,2S)-6,7-Difluoro-2-hydroxy-2,3-dihydro-1H-inden-1-yl]-6-{1H-pyrrolo[2,3-b]pyridin-4-yl}pyridine-3-carboxamide] are below 50 nM and at most 1 nM.
Take `O=C(N[C@@H]1c2ccccc2C[C@H]1N1CCC1)c1ccc(-c2ccnc3[nH]ccc23)nc1` [Compound 133]: the IC50 in assay [1] is 0.01 to 100 nM; in assay [2], 1.01 to 5 nM.
Consider `C[C@H]1Oc2cccc(F)c2[C@@H](NC(=O)c2ccc(-c3ccnc4[nH]ccc34)nc2)[C@@H]1O` [Compound 137], for which the IC50 in assay [1] is 0.01 to 100 nM; in assay [2], at most 1 nM.
As to `Cc1c[nH]c2nccc(-c3ccc(C(=O)N[C@H]4CCOc5cc(F)cc(F)c54)cn3)c12` [Compound 138], the IC50 in assay [1] was 0.01 to 100 nM; in assay [2], at most 1 nM.
Regarding `O=C(N[C@H]1CCOc2ccc(Cl)c(F)c21)c1ccc(-c2ccnc3[nH]ccc23)nc1` [Compound 143], the IC50 is below 50 nM in assay [1] and at most 1 nM in assay [2].
`CC1CN([C@@H]2Cc3ccccc3[C@H]2NC(=O)c2ccc(-c3ccnc4[nH]ccc34)nc2)C1` [Compound 145]: the IC50 was 0.01 to 100 nM in assay [1] and at most 1 nM in assay [2].
Take `CCN(CC)[C@@H]1Cc2ccccc2[C@H]1NC(=O)c1ccc(-c2ccnc3[nH]ccc23)nc1` [Compound 147]: the IC50 in assay [1] was below 50 nM; in assay [2] it was 1.01 to 5 nM.
On the same counts, the results for `C[C@H]1Oc2ccc(F)c(F)c2[C@@H](NC(=O)c2ccc(-c3ccnc4[nH]ccc34)nc2)[C@@H]1O` [Compound 149] are below 50 nM and at most 1 nM.
For `Cc1cccc2c1[C@@H](NC(=O)c1ccc(-c3ccnc4[nH]ccc34)nc1)[C@H](N1CCCC1)C2` [Compound 153], the IC50 in assay [1] was 0.01 to 100 nM; in assay [2] it was at most 1 nM.
In the case of `O=C(N[C@H]1C[C@H](O)c2cc(C(F)F)cc(F)c21)c1ccc(-c2ccnc3[nH]ccc23)nc1` [Compound 155], the IC50 is below 50 nM in assay [1] and at most 1 nM in assay [2].
With `O=C(N[C@H]1C[C@@H](O)c2cc(C(F)F)cc(F)c21)c1ccc(-c2ccnc3[nH]ccc23)nc1` [Compound 156], the values for the IC50 in assay [1] and in assay [2] were below 50 nM and at most 1 nM, respectively.
As to `O=C(N[C@@H]1c2ccccc2C[C@H]1N1CC[C@H](F)C1)c1ccc(-c2ccnc3[nH]ccc23)nc1` [Compound 158], the IC50 is 0.01 to 100 nM in assay [1] and at most 1 nM in assay [2].
With `CO[C@@H]1CCN([C@@H]2Cc3ccccc3[C@H]2NC(=O)c2ccc(-c3ccnc4[nH]ccc34)nc2)C1` [Compound 163], the IC50 in assay [1] is 0.01 to 100 nM; in assay [2], at most 1 nM.
On the same counts, the results for `O=C(N[C@@H]1c2c(F)cc(C(F)F)cc2OC[C@@H]1O)c1ccc(-c2ccnc3[nH]ccc23)nc1` [Compound 164] are below 50 nM and at most 1 nM.
For the molecule `Cc1c[nH]c2nccc(-c3ccc(C(=O)N[C@@H]4c5c(F)cccc5C[C@H]4N4CC(C)C4)cn3)c12` [Compound 166], the results for the IC50 in assay [1] and in assay [2] were 0.01 to 100 nM and at most 1 nM, respectively.
On the same counts, the results for `O=C(N[C@@H]1c2c(Cl)cccc2C[C@H]1N1CCCC1)c1ccc(-c2ccnc3[nH]ccc23)nc1` [Compound 168] are below 50 nM and at most 1 nM.
On the same counts, the results for `Cc1c[nH]c2nccc(-c3ccc(C(=O)N[C@@H]4c5c(Cl)cccc5C[C@H]4N4CCCC4)cn3)c12` [Compound 174] are below 50 nM and at most 1 nM.
For the molecule `O=C(N[C@@H]1c2c(ccc(F)c2Cl)C[C@H]1N1CCCC1)c1ccc(-c2ccnc3[nH]ccc23)nc1` [Compound 177], the IC50 in assay [1] was below 50 nM; in assay [2], at most 1 nM.
As for `O=C(N[C@@H]1c2c(Cl)cccc2C[C@H]1N1CC[C@H](F)C1)c1ccc(-c2ccnc3[nH]ccc23)nc1` [Compound 178], the results for the IC50 in assay [1] and in assay [2] were below 50 nM and at most 1 nM, respectively.
As for `O=C(N[C@@H]1c2c(ccc(F)c2F)C[C@H]1N1CCCC1)c1ccc(-c2ccnc3[nH]cc(F)c23)nc1` [Compound 179], the 50% inhibitory concentration (IC50) is below 50 nM in assay [1] and at most 1 nM in assay [2].
Regarding `Cc1c[nH]c2nccc(-c3ccc(C(=O)N[C@@H]4c5c(ccc(F)c5Cl)C[C@H]4N4CCCC4)cn3)c12` [Compound 181], the values for the IC50 in assay [1] and in assay [2] were below 50 nM and at most 1 nM, respectively.
In the case of `Cc1c[nH]c2nccc(-c3ccc(C(=O)N[C@@H]4c5c(Cl)cccc5C[C@H]4N4CC[C@H](F)C4)cn3)c12` [Compound 182], the concentration for half-maximal inhibition (IC50) in assay [1] is 0.01 to 100 nM; in assay [2], at most 1 nM.
On the same counts, the results for `O=C(N[C@@H]1c2ccc(C(F)F)cc2C[C@H]1N1CC[C@H](F)C1)c1ccc(-c2ccnc3[nH]ccc23)nc1` [Compound 183] are 0.01 to 100 nM and 1.01 to 5 nM.
For `O=C(N[C@@H]1c2c(Cl)cccc2C[C@H]1N1C[C@@H](O)[C@H](F)C1)c1ccc(-c2ccnc3[nH]ccc23)nc1` [Compound 184], the IC50 in assay [2] lay within 1.01 to 5 nM.
Take `O=C(N[C@@H]1c2c(Cl)cccc2C[C@H]1N1C[C@@H](O)[C@@H](F)C1)c1ccc(-c2ccnc3[nH]ccc23)nc1` [Compound 187]: the IC50 in assay [1] was above 100 nM; in assay [2], 1.01 to 5 nM.
